Measured values reported in ChEMBL document CHEMBL1201862, “PubChem BioAssay data set” (2004).
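A five-concentration, 48-hour dose response in 96-well plates underlies each endpoint, interpolated linearly between surrounding concentrations. Here, GI50 denotes the concentration required for 50% inhibition of growth.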 Activity calls are given as the source filed them. Rule as the data show it: active = GI50 up to about 1.1 µM and inactive = higher. Square brackets hold non-standard residues; d marks the D form. Peptide text beside a SMILES is read from it. * marks the point of attachment. ξ: configuration not given here. ξD = NC(CC(=O)O)C(=O)O; Ac3c = NC1(C(=O)O)CC1; Boc = CC(C)(C)OC(=O)*; OtBu = CC(C)(C)O*

Legend:
Assay in all cases: NCI-60 cell line screen, 48 h
KM12 = test system: KM12
UACC-62 = test system: UACC-62
A549 = test system: A549
COLO 205 = test system: COLO 205
SK-MEL-5 = test system: SK-MEL-5
OVCAR-8 = test system: OVCAR-8
SN12C = test system: SN12C
SW-620 = test system: SW-620
HCT-15 = test system: HCT-15
HT-29 = test system: HT-29
NCI-H226 = test system: NCI-H226
SF-295 = test system: SF-295
ACHN = test system: ACHN
U-251 = test system: U-251
BT-549 = test system: BT-549
SNB-75 = test system: SNB-75
NCI-H522 = test system: NCI-H522
M14 = test system: M14
CAKI-1 = test system: CAKI-1
PC-3 = test system: PC-3

Compound | GI50 (KM12) | GI50 (UACC-62) | GI50 (A549) | GI50 (COLO 205) | GI50 (SK-MEL-5) | GI50 (OVCAR-8) | GI50 (SN12C) | GI50 (SW-620) | GI50 (HCT-15) | GI50 (HT-29) | GI50 (NCI-H226) | GI50 (SF-295) | GI50 (ACHN) | GI50 (U-251) | GI50 (BT-549) | GI50 (SNB-75) | GI50 (NCI-H522) | GI50 (M14) | GI50 (CAKI-1) | GI50 (PC-3)
CCCSc1cc(Cl)c(C)cc1S(=O)(=O)n1ccnc1O | > 100 µM (inactive) | > 100 µM (inactive) | > 100 µM (inactive) | > 100 µM (inactive) | > 100 µM (inactive) | > 100 µM (inactive) | > 100 µM (inactive) | > 100 µM (inactive) | > 100 µM | > 100 µM (inactive) | > 100 µM (inactive) | > 100 µM (inactive) | > 100 µM (inactive) | > 100 µM (inactive) | > 100 µM (inactive) | 20.1 µM (inactive) | > 100 µM (inactive) | > 100 µM (inactive) | > 100 µM (inactive) | > 100 µM (inactive)
COC1=C(C)C(=O)C2=C(C1=O)C1C3CC4=C(C(=O)C(OC)=C(C)C4=O)C(CNC(=O)C(C)=O)N3C(C#N)C(C2)N1C (stereo unspecified) | 0.00789 µM (active) | 0.00353 µM (active) | 0.182 µM (active) | 0.00274 µM (active) | 0.00343 µM (active) | 0.00661 µM (active) |  | 0.00246 µM (active) | 0.00603 µM | 0.00388 µM (active) | 0.0177 µM (active) | 0.0202 µM (active) | 0.0209 µM (active) | 0.00811 µM (active) | < 0.001 µM (active) | 0.00519 µM (active) | < 0.001 µM (active) | 0.00417 µM (active) | 0.00516 µM (active) | 0.00352 µM (active)
NC1CCCCC1.O=P(O)(O)C(O)/C=C/c1ccccc1 (stereo unspecified) | > 100 µM (inactive) | > 100 µM (inactive) | > 100 µM (inactive) | > 100 µM (inactive) | > 100 µM (inactive) | > 100 µM (inactive) | > 100 µM (inactive) | > 100 µM (inactive) | > 100 µM | > 100 µM (inactive) | > 100 µM (inactive) | > 100 µM (inactive) | > 100 µM (inactive) | > 100 µM (inactive) | > 100 µM (inactive) | > 100 µM (inactive) | > 100 µM (inactive) | > 100 µM (inactive) | > 100 µM (inactive) | > 100 µM (inactive)
CCCCC1=CC1(C#N)[N+](=O)[O-] (stereo unspecified) | > 100 µM (inactive) | 60.3 µM (inactive) | > 100 µM (inactive) | > 100 µM (inactive) | 36.5 µM (inactive) | > 100 µM (inactive) | 90.8 µM (inactive) | 31.8 µM (inactive) | > 100 µM | > 100 µM (inactive) | > 100 µM (inactive) | > 100 µM (inactive) | > 100 µM (inactive) | > 100 µM (inactive) | 40.6 µM (inactive) | 39.9 µM (inactive) | 45.6 µM (inactive) | 30.8 µM (inactive) | > 100 µM (inactive) | > 100 µM (inactive)
CCCCCCCCCCCCCCCCCCNc1ccn(C2OC(COP(=O)(O)OCC3OC(n4cc(C)c(=O)[nH]c4=O)CC3N=[N+]=[N-])C(O)C2O)c(=O)n1 (stereo unspecified) | 20.3 µM (inactive) | 19.1 µM (inactive) | 52 µM (inactive) | 14.5 µM (inactive) | 22.8 µM (inactive) | 21.8 µM (inactive) | 21.7 µM (inactive) | 22.5 µM (inactive) | 18.8 µM | 19.2 µM (inactive) | 22.8 µM (inactive) | 18.3 µM (inactive) | 54 µM (inactive) | 16.7 µM (inactive) | 19.7 µM (inactive) | 25.8 µM (inactive) | 13.3 µM (inactive) | 20.2 µM (inactive) | 22.4 µM (inactive) | 8.81 µM (inactive)
O=c1c2ccccc2[nH]n1Cc1ccccc1 | > 100 µM (inactive) | > 100 µM (inactive) | > 100 µM (inactive) | > 100 µM (inactive) | > 100 µM (inactive) | > 100 µM (inactive) | > 100 µM (inactive) | > 100 µM (inactive) | > 100 µM | > 100 µM (inactive) | > 100 µM (inactive) | > 100 µM (inactive) | > 100 µM (inactive) | > 100 µM (inactive) | > 100 µM (inactive) | > 100 µM (inactive) | > 100 µM (inactive) | > 100 µM (inactive) | > 100 µM (inactive) | > 100 µM (inactive)
COCn1c(C)c(C)c2c(=O)oc(=O)[nH]c21 | > 100 µM (inactive) | > 100 µM (inactive) | > 100 µM (inactive) | > 100 µM (inactive) | > 100 µM (inactive) | > 100 µM (inactive) | > 100 µM (inactive) | > 100 µM (inactive) | > 100 µM | > 100 µM (inactive) | > 100 µM (inactive) | > 100 µM (inactive) | > 100 µM (inactive) | > 100 µM (inactive) | > 100 µM (inactive) | > 100 µM (inactive) | > 100 µM (inactive) | > 100 µM (inactive) | 8.24 µM (inactive) | > 100 µM (inactive)
COC1CC(OC2CCC3(C)C(=CCC4C3C(OC(C)=O)C(OC(=O)CC(C)C)C3(C)C(C(C)=O)CCC43O)C2)OC(C)C1OC1CC(OC)C(OC2CC(OC)C(OC3OC(C)C(O)C(OC)C3O)C(C)O2)C(C)O1 (stereo unspecified) | 33.1 µM (inactive) | 26.1 µM (inactive) | 37.2 µM (inactive) | 22 µM (inactive) | 18.7 µM (inactive) | 29.2 µM (inactive) | 34.8 µM (inactive) | 31.3 µM (inactive) | 27.3 µM | 19.9 µM (inactive) | 30.5 µM (inactive) | 33 µM (inactive) | 31.6 µM (inactive) | 37.8 µM (inactive) | 24.5 µM (inactive) | 24.4 µM (inactive) | 37.9 µM (inactive) | 38.7 µM (inactive) | 44 µM (inactive) | 18.5 µM (inactive)
CC(=O)NC1C(OCc2ccccc2)OC(CO)C(O)C1OCC(=O)N[C@@H](C)C(=O)N[C@H](CCC(=O)NCCCNc1ccc([N+](=O)[O-])c2[nH]c3ccccc3c(=O)c12)C(N)=O (stereo partly specified) | 93.5 µM (inactive) | 36.2 µM (inactive) | > 100 µM (inactive) | > 100 µM (inactive) | 57.9 µM (inactive) | 92.9 µM (inactive) | > 100 µM (inactive) | > 100 µM (inactive) | 94.2 µM | 36.8 µM (inactive) | 25.5 µM (inactive) | 56.6 µM (inactive) | 50.8 µM (inactive) | 48.3 µM (inactive) | 38.4 µM (inactive) | 46.6 µM (inactive) | 29.3 µM (inactive) | > 100 µM (inactive) | > 100 µM (inactive) | > 100 µM (inactive)
COC(=O)C1(NC(=O)C(CC(=O)OC(C)(C)C)NC(=O)OC(C)(C)C)CC1 (stereo unspecified) (Boc-[ξD](OtBu)-[Ac3c]-OMe) | > 100 µM (inactive) | 1.19 µM (inactive) | > 100 µM (inactive) | > 100 µM (inactive) | > 100 µM (inactive) | > 100 µM (inactive) | > 100 µM (inactive) | > 100 µM (inactive) | > 100 µM | > 100 µM (inactive) | > 100 µM (inactive) | > 100 µM (inactive) | > 100 µM (inactive) | > 100 µM (inactive) | > 100 µM (inactive) | > 100 µM (inactive) | > 100 µM (inactive) | > 100 µM (inactive) | > 100 µM (inactive) | > 100 µM (inactive)
NC1C2C(CC(=O)O)OCC=C3CN4CCC1(C(=O)C(=O)O)C4CC32 (stereo unspecified) | > 100 µM (inactive) | > 100 µM (inactive) | > 100 µM (inactive) | > 100 µM (inactive) | > 100 µM (inactive) | > 100 µM (inactive) | > 100 µM (inactive) | > 100 µM (inactive) | > 100 µM | > 100 µM (inactive) | > 100 µM (inactive) | > 100 µM (inactive) | > 100 µM (inactive) | > 100 µM (inactive) | > 100 µM (inactive) | > 100 µM (inactive) | > 100 µM (inactive) | > 100 µM (inactive) | > 100 µM (inactive) | > 100 µM (inactive)
O=C(c1ccco1)C1CC(c2ccc3ccccc3c2O)=NN1c1ccc([N+](=O)[O-])cc1[N+](=O)[O-] (stereo unspecified) | 3.95 µM (inactive) | 17.6 µM (inactive) | 22.3 µM (inactive) | 16.3 µM (inactive) |  | 23.8 µM (inactive) | 32.8 µM (inactive) | 34.5 µM (inactive) | 17.9 µM | 13.7 µM (inactive) | 20.6 µM (inactive) | 18.1 µM (inactive) | 20.5 µM (inactive) | 28.4 µM (inactive) | 29.7 µM (inactive) | 12.5 µM (inactive) | 7.98 µM (inactive) | 22.9 µM (inactive) | 33.5 µM (inactive) | 16.4 µM (inactive)
COc1ccc(-c2c(C(=O)Nc3ccccc3)c(-c3ccccc3)n(C3OC(CO)C(O)C(O)C3O)c(=S)c2C#N)cc1 (stereo unspecified) | > 100 µM (inactive) | > 100 µM (inactive) | > 100 µM (inactive) | > 100 µM (inactive) | > 100 µM (inactive) | > 100 µM (inactive) | > 100 µM (inactive) | > 100 µM (inactive) | > 100 µM | > 100 µM (inactive) | > 100 µM (inactive) | > 100 µM (inactive) | > 100 µM (inactive) | > 100 µM (inactive) | 0.719 µM (active) |  | > 100 µM (inactive) | > 100 µM (inactive) | > 100 µM (inactive) | > 100 µM (inactive)
O=C(OCc1ccccc1)N1CCNCCNCC1 | > 100 µM (inactive) | > 100 µM (inactive) | > 100 µM (inactive) | > 100 µM (inactive) | > 100 µM (inactive) | > 100 µM (inactive) | > 100 µM (inactive) | > 100 µM (inactive) | > 100 µM | > 100 µM (inactive) | > 100 µM (inactive) | > 100 µM (inactive) | > 100 µM (inactive) | > 100 µM (inactive) | > 100 µM (inactive) |  | > 100 µM (inactive) | > 100 µM (inactive) | > 100 µM (inactive) | > 100 µM (inactive)
